Legend:
[1] = test system: RXF 393; assay: Growth inhibition of human RXF393 cells assessed as cell growth at 10 uM incubated for 48 hrs by sulforhodamine B assay relative to control; format: functional; settings: RXF 393, 48 h, read-out: Activity
[2] = test system: OVCAR-4; assay: Growth inhibition of human OVCAR4 cells assessed as cell growth at 10 uM incubated for 48 hrs by sulforhodamine B assay relative to control; format: functional; settings: OVCAR-4, 48 h, read-out: Activity
[3] = test system: MDA-MB-435; assay: Growth inhibition of human MDA-MB-435 cells assessed as cell growth at 10 uM incubated for 48 hrs by sulforhodamine B assay relative to control; format: functional; settings: MDA-MB-435, 48 h, read-out: Activity
[4] = test system: SN12C; assay: Growth inhibition of human SN12C cells assessed as cell growth at 10 uM incubated for 48 hrs by sulforhodamine B assay relative to control; format: functional; settings: read-out: Activity
[5] = test system: Hs-578T; assay: Growth inhibition of human Hs578T cells assessed as cell growth at 10 uM incubated for 48 hrs by sulforhodamine B assay relative to control; format: functional; settings: read-out: Activity
[6] = test system: NCI-H23; assay: Growth inhibition of human NCI-H23 cells assessed as cell growth at 10 uM incubated for 48 hrs by sulforhodamine B assay relative to control; format: functional; settings: NCI-H23, 48 h, read-out: Activity
[7] = test system: HCC 2998; assay: Growth inhibition of human HCC2998 cells assessed as cell growth at 10 uM incubated for 48 hrs by sulforhodamine B assay relative to control; format: functional; settings: HCC 2998, 48 h, read-out: Activity
[8] = test system: OVCAR-8; assay: Growth inhibition of human OVCAR8 cells assessed as cell growth at 10 uM incubated for 48 hrs by sulforhodamine B assay relative to control; format: functional; settings: OVCAR-8, 48 h, read-out: Activity
[9] = test system: M14; assay: Growth inhibition of human M14 cells assessed as cell growth at 10 uM incubated for 48 hrs by sulforhodamine B assay relative to control; format: functional; settings: M14, 48 h, read-out: Activity
[10] = test system: SW-620; assay: Growth inhibition of human SW620 cells assessed as cell growth at 10 uM incubated for 48 hrs by sulforhodamine B assay relative to control; format: functional; settings: SW-620, 48 h, read-out: Activity
[11] = test system: Malme-3M; assay: Growth inhibition of human MALME-3M cells assessed as cell growth at 10 uM incubated for 48 hrs by sulforhodamine B assay relative to control; format: functional; settings: read-out: Activity
[12] = test system: 786-0; assay: Growth inhibition of human 786-0 cells assessed as cell growth at 10 uM incubated for 48 hrs by sulforhodamine B assay relative to control; format: functional; settings: 786-0, 48 h, read-out: Activity
[13] = test system: SF-268; assay: Growth inhibition of human SF268 cells assessed as cell growth at 10 uM incubated for 48 hrs by sulforhodamine B assay relative to control; format: functional; settings: SF-268, 48 h, read-out: Activity
[14] = test system: HCT-15; assay: Growth inhibition of human HCT15 cells assessed as cell growth at 10 uM incubated for 48 hrs by sulforhodamine B assay relative to control; format: functional; settings: HCT-15, 48 h, read-out: Activity
[15] = test system: LOX IMVI; assay: Growth inhibition of human LOXIMVI cells assessed as cell growth at 10 uM incubated for 48 hrs by sulforhodamine B assay relative to control; format: functional; settings: read-out: Activity
[16] = test system: CAKI-1; assay: Growth inhibition of human Caki1 cells assessed as cell growth at 10 uM incubated for 48 hrs by sulforhodamine B assay relative to control; format: functional; settings: CAKI-1, 48 h, read-out: Activity
[17] = test system: MCF7; assay: Growth inhibition of human MCF7 cells assessed as cell growth at 10 uM incubated for 48 hrs by sulforhodamine B assay relative to control; format: functional; settings: MCF7, 48 h, read-out: Activity
[18] = test system: UO-31; assay: Growth inhibition of human UO31 cells assessed as cell growth at 10 uM incubated for 48 hrs by sulforhodamine B assay relative to control; format: functional; settings: UO-31, 48 h, read-out: Activity
[19] = test system: COLO 205; assay: Growth inhibition of human COLO205 cells assessed as cell growth at 10 uM incubated for 48 hrs by sulforhodamine B assay relative to control; format: functional; settings: COLO 205, 48 h, read-out: Activity
[20] = test system: SK-MEL-5; assay: Growth inhibition of human SK-MEL-5 cells assessed as cell growth at 10 uM incubated for 48 hrs by sulforhodamine B assay relative to control; format: functional; settings: SK-MEL-5, 48 h, read-out: Activity
[21] = test system: NCI-H460; assay: Growth inhibition of human NCI-H460 cells assessed as cell growth at 10 uM incubated for 48 hrs by sulforhodamine B assay relative to control; format: functional; settings: NCI-H460, 48 h, read-out: Activity
[22] = test system: SK-MEL-5; assay: Growth inhibition of human SK-MEL-5 cells assessed as cell growth at 100 uM incubated for 48 hrs by sulforhodamine B assay relative to control; format: functional; settings: SK-MEL-5, 48 h, read-out: Activity
[23] = test system: NCI-H522; assay: Growth inhibition of human NCI-H522 cells assessed as cell growth at 1 uM incubated for 48 hrs by sulforhodamine B assay relative to control; format: functional; settings: NCI-H522, 48 h, read-out: Activity
[24] = test system: COLO 205; assay: Growth inhibition of human COLO205 cells assessed as cell growth at 0.1 uM incubated for 48 hrs by sulforhodamine B assay relative to control; format: functional; settings: COLO 205, 48 h, read-out: Activity
[25] = test system: MDA-MB-468; assay: Growth inhibition of human MDA-MB-468 cells incubated for 48 hrs by sulforhodamine B assay; format: functional, cell-based; settings: MDA-MB-468, 48 h
[26] = test system: HL-60(TB); assay: Growth inhibition of human HL-60(TB) cells assessed as cell growth at 0.1 uM incubated for 48 hrs by sulforhodamine B assay relative to control; format: functional; settings: HL-60, 48 h, read-out: Activity
[27] = test system: SR; assay: Growth inhibition of human SR cells assessed as cell growth at 1 uM incubated for 48 hrs by sulforhodamine B assay relative to control; format: functional; settings: read-out: Activity
[28] = test system: CCRF-CEM; assay: Growth inhibition of human CCRF-CEM cells incubated for 48 hrs by sulforhodamine B assay; format: functional, cell-based
[29] = test system: SNB-19; assay: Growth inhibition of human SNB19 cells assessed as cell growth at 1 uM incubated for 48 hrs by sulforhodamine B assay relative to control; format: functional; settings: SNB-19, 48 h, read-out: Activity
[30] = test system: KM12; assay: Growth inhibition of human KM12 cells incubated for 48 hrs by sulforhodamine B assay; format: functional, cell-based; settings: KM12, 48 h
[31] = test system: DU-145; assay: Growth inhibition of human DU145 cells assessed as cell growth at 1 uM incubated for 48 hrs by sulforhodamine B assay relative to control; format: functional; settings: DU-145, 48 h, read-out: Activity
[32] = read-out: LC50 (the source's name)
[33] = read-out: pLC50 (the source's name) (converted)

COc1cc(Cl)cc(-c2nn(-c3cccc(NC(=O)c4cc(C(F)(F)F)cc(C(F)(F)F)c4)c3)cc2-c2ccncc2)c1
growth at 10 µM [1]: 67.7%
growth at 10 µM [2]: 72.1%
growth at 10 µM [3]: 80%
growth at 10 µM [4]: 69.8%
growth at 10 µM [5]: 81.1%
growth at 10 µM [6]: 72.1%
growth at 10 µM [7]: 78.3%
growth at 10 µM [8]: 55.4%
growth at 10 µM [9]: 67.3%
growth at 10 µM [10]: 86.2%
growth at 10 µM [11]: 104%
growth at 10 µM [12]: 80.2%
growth at 10 µM [13]: 89.2%
growth at 10 µM [14]: 58.6%
growth at 10 µM [15]: 76.1%
growth at 10 µM [16]: 68.6%
growth at 10 µM [17]: 57.8%
growth at 10 µM [18]: 54.3%
growth at 10 µM [19]: 88.7%
growth at 10 µM [20]: 67.3%
growth at 10 µM [21]: 41%

COc1cc(Cl)cc(-c2nn(-c3cccc(NC(=O)Nc4cc(C(F)(F)F)cc(C(F)(F)F)c4)c3)cc2-c2ccncc2)c1
growth at 100 µM [22]: -70%
growth at 1 µM [23]: 18%
growth at 10 µM [1]: -29.2%
growth at 0.1 µM [24]: 98%
growth at 10 µM [2]: 11.8%
IC50 [25]: 340 nM
GI50 ([25]; read-out: GI50): 336 nM
CC50 [25, 32]: > 100000 nM
TGI ([25]; read-out: TGI): 2520 nM
GI50 ([25]; read-out: pGI50 (converted)): 339 nM
CC50 [25, 33]: > 100000 nM
TGI ([25]; read-out: pTGI (converted)): 2510 nM
growth at 10 µM [3]: -19.4%
growth at 10 µM [4]: 9.32%
growth at 10 µM [5]: 5.82%
growth at 10 µM [6]: -6.14%
growth at 10 µM [7]: 9.5%
growth at 10 µM [8]: -2.46%
growth at 10 µM [9]: 1.22%
growth at 10 µM [10]: 7.18%
growth at 0.1 µM [26]: 88%
growth at 1 µM [27]: 28%
growth at 10 µM [11]: -19.2%
IC50 [28]: 270 nM
GI50 ([28]; read-out: GI50): 273 nM
CC50 [28, 32]: > 100000 nM
TGI ([28]; read-out: TGI): 1330 nM
GI50 ([28]; read-out: pGI50 (converted)): 275 nM
CC50 [28, 33]: > 100000 nM
TGI ([28]; read-out: pTGI (converted)): 1350 nM
growth at 10 µM [12]: -26.9%
growth at 10 µM [13]: 14.2%
growth at 10 µM [14]: 6.21%
growth at 10 µM [15]: -24%
growth at 10 µM [16]: 8.99%
growth at 10 µM [17]: 3.81%
growth at 1 µM [29]: 28%
growth at 10 µM [18]: -0.18%
growth at 10 µM [19]: -64%
growth at 10 µM [20]: -79.4%
growth at 10 µM [21]: 0.24%
IC50 [30]: 510 nM
GI50 ([30]; read-out: GI50): 606 nM
CC50 [30, 32]: 27.9 nM
TGI ([30]; read-out: TGI): 2750 nM
GI50 ([30]; read-out: pGI50 (converted)): 501 nM
CC50 [30, 33]: 28200 nM
TGI ([30]; read-out: pTGI (converted)): 2750 nM
growth at 1 µM [31]: 27%

COc1cc(Cl)cc(-c2nn(-c3cccc(NC(=O)c4ccc(Cl)c(Cl)c4)c3)cc2-c2ccncc2)c1
growth at 10 µM [1]: 59.2%
growth at 10 µM [2]: 58.6%
growth at 10 µM [3]: 80.8%
growth at 10 µM [4]: 69.6%
growth at 10 µM [5]: 63.6%
growth at 10 µM [6]: 75.2%
growth at 10 µM [7]: 77.8%
growth at 10 µM [8]: 58.4%
growth at 10 µM [9]: 68.9%
growth at 10 µM [10]: 84.2%
growth at 10 µM [11]: 96.4%
growth at 10 µM [12]: 74.1%
growth at 10 µM [13]: 82.4%
growth at 10 µM [14]: 57.9%
growth at 10 µM [15]: 72.8%
growth at 10 µM [16]: 63.6%
growth at 10 µM [17]: 57.7%
growth at 10 µM [18]: 43.5%
growth at 10 µM [19]: 81.5%
growth at 10 µM [20]: 78.5%
growth at 10 µM [21]: 65.2%
